Like-named read-outs stand apart in the source and are kept apart here.
Key:
[1] = biological target: T1, butyrylcholinesterase (horse-serum E.C 3.1.1.8) (Equus caballus, UniProt P81908); assay: biochemical; type: biochemical; conditions: for BChE inhibition profile (in words): qualitative statement
T1 construct: butyrylcholinesterase (horse-serum E.C 3.1.1.8); purchased Sigma, Pakistan; host or cells: horse serum
Procedure: (§1) All other chemicals were of analytical grade and were used as such without further purification. Acetylcholinesterase (AChE) and butyrylcholinesterase (BChE) inhibiting activities were measured according to a modified spectrophotometric method used by Ellman et al.. Protocol and assay conditions were the same as described by Rocha et al..
(§2) The Acetylthiocholine iodide and butyrylthiocholine chloride were used as substrates for investigation of acetylcholinesterase and butyrylcholinesterase assays, respectively. The 5,5′-Dithiobis[2-nitrobenzoic-acid] (DTNB) was used for the measurement of cholinesterase activity. The 0.2 mM DTNB in 62 mM sodium phosphate buffer (pH 8.0, 880 µL), test compound solution (40 µL) and acetylcholinesterase or butyrylcholinesterase solution (40 µL) were mixed and incubated for 15 minutes (25°C). The reaction was then initiated by the addition of acetylthiocholine or butyrylthiocholine (40 µL), respectively. […] All the reactions were performed in triplicate using a BMS spectrophotometer (USA). […] The final concentration of DMSO in the reaction mixture was maintained at 6%.

[2] = biological target: T2, Acetylcholinesterase (EC 3.1.1.7) (Homo sapiens, UniProt P22303); assay: biochemical; type: biochemical; conditions: for AChE inhibition profile (in words): qualitative statement; for IC50: read-out: AChE ± SEM (IC50)
T2 construct: purchased Sigma, Pakistan
Procedure: as §1, §2

[3] = acetylthiocholine iodide substrate, DTNB, pH 8.0, 25°C, 412 nm, value ± SEM
[4] = butyrylthiocholine chloride substrate, DTNB, pH 8.0, 25°C, 412 nm, value ± SEM, read-out: BChE ± SEM (IC50)

T1 sequence (P81908 whole entry): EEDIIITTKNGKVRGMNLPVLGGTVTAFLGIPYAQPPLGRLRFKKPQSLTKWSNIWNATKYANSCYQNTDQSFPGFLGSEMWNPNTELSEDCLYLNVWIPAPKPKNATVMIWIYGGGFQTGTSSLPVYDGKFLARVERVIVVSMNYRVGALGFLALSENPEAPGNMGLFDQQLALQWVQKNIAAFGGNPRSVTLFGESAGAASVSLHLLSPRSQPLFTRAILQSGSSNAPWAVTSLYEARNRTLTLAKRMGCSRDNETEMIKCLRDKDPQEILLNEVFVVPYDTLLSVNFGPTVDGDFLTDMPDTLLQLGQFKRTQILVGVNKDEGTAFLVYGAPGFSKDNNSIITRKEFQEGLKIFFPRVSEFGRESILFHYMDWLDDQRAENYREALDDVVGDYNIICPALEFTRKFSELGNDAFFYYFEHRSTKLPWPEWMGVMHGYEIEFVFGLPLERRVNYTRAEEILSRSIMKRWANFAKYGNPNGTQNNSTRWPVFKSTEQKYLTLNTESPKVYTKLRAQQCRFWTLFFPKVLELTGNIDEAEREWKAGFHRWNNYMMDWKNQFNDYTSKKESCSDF
T2 sequence (P22303 32-614): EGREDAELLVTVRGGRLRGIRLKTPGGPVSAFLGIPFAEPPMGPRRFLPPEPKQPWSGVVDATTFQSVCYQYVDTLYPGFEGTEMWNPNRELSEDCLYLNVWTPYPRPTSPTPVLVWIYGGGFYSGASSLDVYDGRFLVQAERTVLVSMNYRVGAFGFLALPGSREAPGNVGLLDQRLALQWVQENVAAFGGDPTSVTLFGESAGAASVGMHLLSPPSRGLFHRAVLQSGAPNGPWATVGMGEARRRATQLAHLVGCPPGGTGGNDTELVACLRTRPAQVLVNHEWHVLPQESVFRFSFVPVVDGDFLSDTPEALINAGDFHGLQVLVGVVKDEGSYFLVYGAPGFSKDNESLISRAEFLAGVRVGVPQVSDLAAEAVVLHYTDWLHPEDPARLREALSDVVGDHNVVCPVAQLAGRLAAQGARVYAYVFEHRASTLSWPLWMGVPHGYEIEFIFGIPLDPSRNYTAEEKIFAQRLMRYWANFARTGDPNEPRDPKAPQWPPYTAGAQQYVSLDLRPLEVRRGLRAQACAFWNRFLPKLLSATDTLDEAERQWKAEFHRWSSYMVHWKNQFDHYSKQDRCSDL

CCCCC(CC)COC(=O)c1ccccc1C(=O)OCC(CC)CCCC (stereo not shown) [Compound 1, bis (2-ethylhexyl phthalate]
BChE ± SEM (IC50) ([1]; butyrylthiocholine chloride substrate, DTNB, pH 8.0, 25°C, 412 nm, value ± SEM): Nil | BChE inhibition profile (in words) [1]: inactive | AChE ± SEM (IC50) [2, 3]: Nil | AChE inhibition profile (in words) [2]: inactive

CCOc1c(CC=C(C)C)cc(C(=O)OCC(C)(C)C)cc1CC=C(C)C [Compound 4, Neopentyl-4-ethoxy-3,5-bis [3-methyl-2-butenyl] benzoate]
IC50 [1, 4]: 14.76 ± 0.087 µM | BChE inhibition profile (in words) [1]: weak inhibition profile | IC50 [2, 3]: 5.27 ± 0.04 µM | AChE inhibition profile (in words) [2]: weak inhibition profile

CCC(CCC(C)CCOC(C)=O)COC(=O)c1ccccc1C(=O)OCC(CC)CCC(C)CCOC(C)=O (stereo not shown) [Compound 3, Bis (7-acetoxy-2-ethyl-5-methylheptyl) phthalate]
IC50 [1, 4]: 5.98 ± 0.079 µM | IC50 [2, 3]: 1.65 ± 0.03 µM

CCCCCCCCOC(=O)c1ccccc1C(=O)OCCCCCCCC [Compound 2, dioctyl phthalate]
IC50 [1]: 20.12 ± 0.079 µM | BChE inhibition profile (in words) [1]: weak inhibition profile | IC50 [2, 3]: 8.74 ± 0.07 µM | AChE inhibition profile (in words) [2]: weak inhibition profile

CC(C)=CCc1cc(C(=O)OCC(C)(C)C)cc(CC=C(C)C)c1O [Compound 5, Neopentyl-4-hydroxy-3,5-bis [3-methyl-2-butenyl] benzoate]
IC50 [1, 4]: 9.84 ± 0.037 µM | IC50 [2, 3]: 3.43 ± 0.02 µM

From PMC3986359, “New Cholinesterase Inhibitory Constituents from Lonicera quinquelocularis” (PLoS ONE, 2014)
